The molecules below were run against HIS-TGF-βR1 T204D (Homo sapiens (Human), UniProt P36897, T204D) (assay: HTRF probe displacement assay with HIS-TGF-βR1 T204D). Conditions: not given.
Sequence of HIS-TGF-βR1 T204D (P36897 34-503 T204D): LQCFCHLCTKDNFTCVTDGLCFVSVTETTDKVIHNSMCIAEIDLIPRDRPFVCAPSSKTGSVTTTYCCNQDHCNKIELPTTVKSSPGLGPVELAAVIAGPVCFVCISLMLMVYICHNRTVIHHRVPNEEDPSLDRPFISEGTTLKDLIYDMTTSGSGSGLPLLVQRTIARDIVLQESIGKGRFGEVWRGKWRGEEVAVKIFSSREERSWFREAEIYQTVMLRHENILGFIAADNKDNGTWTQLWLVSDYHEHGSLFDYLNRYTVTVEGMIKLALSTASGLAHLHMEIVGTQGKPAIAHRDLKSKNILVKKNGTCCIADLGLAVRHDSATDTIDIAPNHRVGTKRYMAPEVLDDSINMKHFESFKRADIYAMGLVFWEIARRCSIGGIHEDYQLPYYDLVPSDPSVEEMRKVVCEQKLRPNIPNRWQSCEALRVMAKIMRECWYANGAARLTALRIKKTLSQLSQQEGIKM

| IC50 [nM] | SMILES |
| --- | --- |
| 2.8 | NC(=O)c1cnc2ccc(-c3c(-c4ccc(F)c(Cl)c4)ncn3[C@H]3C[C@@H](O)C3)nn12 [140′, 6-(4-(3-chloro-4-fluorophenyl)-1-((1s,3s)-3-hydroxycyclobutyl)-1H-imidazol-5-yl)imidazo[1,2-b]pyridazine-3-carboxamide] |

Same assay, conditions: read-out: TGFbr1 IC50; HTRF probe displacement, 1 nM HIS-TGF-βR1 T204D, 1 hour at room temperature

| SMILES | IC50 [nM] |
| --- | --- |
| NC(=O)c1cnc2ccc(-c3c(-c4ccc(F)cc4)ncn3C3CC3)nn12 [109′, 6-(1-cyclopropyl-4-(4-fluorophenyl)-1H-imidazol-5-yl)imidazo[1,2-b]pyridazine-3-carboxamide] | 2.5 |
| NC(=O)c1cnc2ccc(-c3c(-c4ccc(F)c(Cl)c4)ncn3CC(F)F)nn12 [113′, 6-(4-(3-chloro-4-fluorophenyl)-1-(2,2-difluoroethyl)-1H-imidazol-5-yl)imidazo[1,2-b]pyridazine-3-carboxamide] | 0.9 |
| NC(=O)c1cnc2ccc(-c3c(-c4ccc(F)c(Cl)c4)ncn3CCF)nn12 [114′, 6-(4-(3-chloro-4-fluorophenyl)-1-(2-fluoroethyl)-1H-imidazol-5-yl)imidazo[1,2-b]pyridazine-3-carboxamide] | 1.3 |
| CC(C)n1cnc(-c2ccc(F)c(Cl)c2)c1-c1ccc2ncc(C(N)=O)n2n1 [116′, 6-(4-(3-chloro-4-fluorophenyl)-1-isopropyl-1H-imidazol-5-yl)imidazo[1,2-b]pyridazine-3-carboxamide] | 0.9 |
| CC(C)OCCn1cnc(-c2ccc(F)cc2)c1-c1ccc2ncc(C(N)=O)n2n1 [124′, 6-(4-(4-fluorophenyl)-1-(2-isopropoxyethyl)-1H-imidazol-5-yl)imidazo[1,2-b]pyridazine-3-carboxamide] | 2.5 |
| CC[C@@H](CF)n1cnc(-c2ccc(F)cc2)c1-c1ccc2ncc(C(N)=O)n2n1 [128′, (S)-6-(1-(1-fluorobutan-2-yl)-4-(4-fluorophenyl)-1H-imidazol-5-yl)imidazo[1,2-b]pyridazine-3-carboxamide] | 1.5 |
| NC(=O)c1cnc2ccc(-c3c(-c4ccc(F)cc4)ncn3CCCO)nn12 [132′, 6-(4-(4-fluorophenyl)-1-(3-hydroxypropyl)-1H-imidazol-5-yl)imidazo[1,2-b]pyridazine-3-carboxamide] | 4.7 |
| NC(=O)c1cnc2ccc(-c3c(-c4ccc(F)cc4)ncn3CCO)nn12 [133′, 6-(4-(4-fluorophenyl)-1-(2-hydroxyethyl)-1H-imidazol-5-yl)imidazo[1,2-b]pyridazine-3-carboxamide] | 3.1 |
| CC(C)n1cnc(-c2ccc(F)cc2)c1-c1ccc2ncc(C(N)=O)n2n1 [135′, 6-(4-(4-fluorophenyl)-1-isopropyl-1H-imidazol-5-yl)imidazo[1,2-b]pyridazine-3-carboxamide] | 0.7 |
| NC(=O)c1cnc2ccc(-c3c(-c4ccc(F)cc4)ncn3C34CC(C3)C4)nn12 [136′, 6-(1-(bicyclo[1.1.1]pentan-1-yl)-4-(4-fluorophenyl)-1H-imidazol-5-yl)imidazo[1,2-b]pyridazine-3-carboxamide] | 12.4 |
| CC(F)(F)Cn1cnc(-c2ccc(F)cc2)c1-c1ccc2ncc(C(N)=O)n2n1 [137′, 6-(1-(2,2-difluoropropyl)-4-(4-fluorophenyl)-1H-imidazol-5-yl)imidazo[1,2-b]pyridazine-3-carboxamide] | 0.6 |

Further lines, results first:

| IC50 [nM] | SMILES |
| --- | --- |
| 13.1 | CCn1cnc(-c2ccc(F)c(Cl)c2)c1-c1ccc2ncc(C#N)n2c1 [94′, 6-(4-(3-chloro-4-fluorophenyl)-1-ethyl-1H-imidazol-5-yl)imidazo[1,2-a]pyridine-3-carbonitrile] |
| 94.4 | N#Cc1cnc2ccc(-c3c(-c4ccc(F)c(Cl)c4)ncn3CC3CC3)cn12 [96′, 6-(4-(3-chloro-4-fluorophenyl)-1-(cyclopropylmethyl)-1H-imidazol-5-yl)imidazo[1,2-a]pyridine-3-carbonitrile] |
| 140 | N#Cc1cnc2ccc(-c3c(-c4ccc(F)c(Cl)c4)ncn3C3COC3)cn12 [97′, 6-(4-(3-chloro-4-fluorophenyl)-1-(oxetan-3-yl)-1H-imidazol-5-yl)imidazo[1,2-a]pyridine-3-carbonitrile] |
| 17.3 | Cn1cnc(-c2ccc(F)c(Cl)c2)c1-c1ccc2ncc(C#N)n2c1 [98′, 6-(4-(3-chloro-4-fluorophenyl)-1-methyl-1H-imidazol-5-yl)imidazo[1,2-a]pyridine-3-carbonitrile] |
| 11.6 | N#Cc1cnc2ccc(-c3c(-c4ccc(F)c(Cl)c4)ncn3CCO)cn12 [100′, 6-(4-(3-chloro-4-fluorophenyl)-1-(2-hydroxyethyl)-1H-imidazol-5-yl)imidazo[1,2-a]pyridine-3-carbonitrile] |
| 23.2 | N#Cc1cnc2ccc(-c3c(-c4ccc(F)c(Cl)c4)ncn3CCCF)cn12 [101′, 6-(4-(3-chloro-4-fluorophenyl)-1-(3-fluoropropyl)-1H-imidazol-5-yl)imidazo[1,2-a]pyridine-3-carbonitrile] |
| 6.1 | NC(=O)c1cnc2ccc(-c3c(-c4ccc(F)cc4)ncn3C3CC(F)(F)C3)nn12 [106′, 6-(1-(3,3-difluorocyclobutyl)-4-(4-fluorophenyl)-1H-imidazol-5-yl)imidazo[1,2-b]pyridazine-3-carboxamide] |
| 0.8 | NC(=O)c1cnc2ccc(-c3c(-c4ccc(F)cc4)ncn3CCF)nn12 [111′, 6-(1-(2-fluoroethyl)-4-(4-fluorophenyl)-1H-imidazol-5-yl)imidazo[1,2-b]pyridazine-3-carboxamide] |
| 0.7 | CCn1cnc(-c2ccc(F)cc2)c1-c1ccc2ncc(C(N)=O)n2n1 [112′, 6-(1-ethyl-4-(4-fluorophenyl)-1H-imidazol-5-yl)imidazo[1,2-b]pyridazine-3-carboxamide] |
| 0.6 | CCn1cnc(-c2ccc(F)c(Cl)c2)c1-c1ccc2ncc(C(N)=O)n2n1 [117′, 6-(4-(3-chloro-4-fluorophenyl)-1-ethyl-1H-imidazol-5-yl)imidazo[1,2-b]pyridazine-3-carboxamide] |
| 0.4 | CCn1cnc(-c2ccc(F)c(Cl)c2)c1-c1ccc2ncc(C(N)=O)n2c1 [119′, 6-(4-(3-chloro-4-fluorophenyl)-1-ethyl-1H-imidazol-5-yl)imidazo[1,2-a]pyridine-3-carboxamide] |
| 2.6 | CC[C@@H](CO)n1cnc(-c2ccc(F)cc2)c1-c1ccc2ncc(C(N)=O)n2n1 [125′, (S)-6-(4-(4-fluorophenyl)-1-(1-hydroxybutan-2-yl)-1H-imidazol-5-yl)imidazo[1,2-b]pyridazine-3-carboxamide] |
| 7.4 | NC(=O)c1cnc2ccc(-c3c(-c4ccc(F)cc4)ncn3C3COC3)nn12 [126′, 6-(4-(4-fluorophenyl)-1-(oxetan-3-yl)-1H-imidazol-5-yl)imidazo[1,2-b]pyridazine-3-carboxamide] |
| 5.1 | NC(=O)c1cnc2ccc(-c3c(-c4ccc(F)cc4)ncn3C(CO)CO)nn12 [129′, 6-(1-(1,3-dihydroxypropan-2-yl)-4-(4-fluorophenyl)-1H-imidazol-5-yl)imidazo[1,2-b]pyridazine-3-carboxamide] |
| 3.9 | Cn1cnc(-c2ccc(F)cc2)c1-c1ccc2ncc(C(N)=O)n2n1 [134′, 6-(4-(4-fluorophenyl)-1-methyl-1H-imidazol-5-yl)imidazo[1,2-b]pyridazine-3-carboxamide] |
| 0.7 | NC(=O)c1cnc2ccc(-c3c(-c4ccc(F)c(Cl)c4)ncn3CCO)nn12 [138′, 6-(4-(3-chloro-4-fluorophenyl)-1-(2-hydroxyethyl)-1H-imidazol-5-yl)imidazo[1,2-b]pyridazine-3-carboxamide] |

— patent publication US9884868B2, “TGF-beta inhibitors” (Rigel Pharmaceuticals, Inc., priority 2015, dated 2018)
